Reference: patent publication US9802947B2, “3-oxo-tetrahydro-furo[3,2-b]pyrrol-4(5H)-yl) derivatives II” (GRÜNENTHAL GMBH, priority 2014, dated 2017)

Tests used:
Format in all cases: biochemical
[1] = target: recombinant human cathepsin S (hCatS) (Homo sapiens (Human), UniProt P25774); test: CatS functional enzyme assay (fluorogenic substrate Z-VVR-AMC); details: Ki calculated by Cheng Prusoff equation; pH 6.5
Description: (§1) Reference and test compounds were assayed for inhibitory potency (IC50) against human cathepsins using the following assay setups:
(§2) Recombinant human cathepsins (CatS, CatK, CatL, CatB) were purchased from a Enzo Life Sciences. All assays were carried out in 96-well format using a buffer of 50 mM KH2PO4, 50 mM NaCl, 2 mM EDTA, 0.5 mM DTT and 1% Triton-X-100, pH 6.5 for Cathepsin S and a buffer of 50 mM NaOAc, 10 mM EDTA, 1 mM DTT and 0.01% Triton-X-100, pH 5.5 for CatK/L/B. For CatS, the enzyme (0.0007 mU/well) was incubated with fluorogeninc substrate (Z-VVR-AMC, 5 μM) at RT for 10 min. For CatK the enzyme (0.00175 mU/well) was incubated with fluorogeninc substrate (Z-FR-AMC, 40 μM) at RT for 10 min. For CatL, the enzyme (0.000874 mU/well) was incubated with fluorogeninc substrate (Z-VVR-AMC, 40 μM) at RT for 10 min. For CatB the enzyme was incubated with fluorogenic substrate (Z-VVR-AMC, 200 μM) at RT for 10 min. Flourogenic substrate turnover was detected using a microplate reader (Synergyl™ H4, BioTek). Ki values were calculated using the Cheng Prusoff equation (Cheng & Prosoff 1973).

[2] = target: recombinant human cathepsin K (hCatK) (Homo sapiens (Human), UniProt P43235); test: CatK functional enzyme assay (fluorogenic substrate Z-FR-AMC); details: for Ki: Ki calculated by Cheng Prusoff equation, pH 5.5; for Selectivity Ki(hCatS)/Ki(hCatK): ratio of Ki hCatS to Ki hCatK
recombinant human cathepsin K (hCatK), sequence (P43235 115-329): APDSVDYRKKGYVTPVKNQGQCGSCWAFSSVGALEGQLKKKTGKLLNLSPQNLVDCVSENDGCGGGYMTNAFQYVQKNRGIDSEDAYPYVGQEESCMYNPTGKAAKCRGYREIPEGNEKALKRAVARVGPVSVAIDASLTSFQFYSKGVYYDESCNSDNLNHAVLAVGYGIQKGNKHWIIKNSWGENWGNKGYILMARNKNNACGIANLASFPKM
Description: as §1, §2

[3] = target: recombinant human cathepsin L (hCatL) (Homo sapiens (Human), UniProt P07711); test: CatL functional enzyme assay (fluorogenic substrate Z-VVR-AMC); details: pH 5.5
recombinant human cathepsin L (hCatL), sequence (P07711 114-333): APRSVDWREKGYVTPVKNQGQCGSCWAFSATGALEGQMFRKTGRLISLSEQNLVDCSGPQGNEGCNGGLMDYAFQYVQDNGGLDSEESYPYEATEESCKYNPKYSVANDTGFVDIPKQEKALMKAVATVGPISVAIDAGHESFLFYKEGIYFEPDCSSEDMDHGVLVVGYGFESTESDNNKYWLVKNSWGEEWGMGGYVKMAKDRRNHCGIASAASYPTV
Description: as §1, §2

recombinant human cathepsin S (hCatS), sequence (P25774 115-331): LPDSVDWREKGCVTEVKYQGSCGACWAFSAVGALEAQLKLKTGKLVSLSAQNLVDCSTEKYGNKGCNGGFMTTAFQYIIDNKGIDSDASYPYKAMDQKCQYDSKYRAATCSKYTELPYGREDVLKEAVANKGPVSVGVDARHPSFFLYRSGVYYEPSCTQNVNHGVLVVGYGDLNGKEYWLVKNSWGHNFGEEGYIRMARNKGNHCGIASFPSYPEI

O=C(N[C@H](C(=O)N1C[C@H](Cl)[C@H]2OCC(=O)[C@H]21)C1CCCC1)c1cccc(-c2cccnc2)c1 [Comparative Example C1, N—((S)-2-((3aS,6S,6aS)-6-chloro-3-oxotetrahydro-2H-furo[3,2-b]pyrrol-4(5H)-yl)-1-cyclopentyl-2-oxoethyl)-3-(pyridin-3-yl)benzamide, reference compound]
Ki [1]: 82.4 nM | Ki [2]: 14.8 nM | Selectivity Ki(hCatS)/Ki(hCatK) [2]: 6

O=C(N[C@H](C(=O)N1C[C@H](Cl)[C@H]2OCC(=O)[C@H]21)C1CCCC1)c1ccc(-c2cccnn2)s1 [Example 1, N—((S)-2-((3aS,6S,6aS)-6-chloro-3-oxotetrahydro-2H-furo[3,2-b]pyrrol-4(5H)-yl)-1-cyclopentyl-2-oxoethyl)-5-(pyridazin-3-yl)thiophene-2-carboxamide]
Ki [1]: 151 nM | inhibition at 31.6 µM [3]: 72% | Ki [2]: 1.5 nM | Selectivity Ki(hCatS)/Ki(hCatK) [2]: 99

O=C(N[C@H](C(=O)N1C[C@H](Cl)[C@H]2OCC(=O)[C@H]21)C1CCCC1)c1ccc(-c2cccnc2)s1 [Example 2, N—((S)-2-((3aS,6S,6aS)-6-chloro-3-oxotetrahydro-2H-furo[3,2-b]pyrrol-4(5H)-yl)-1-cyclopentyl-2-oxoethyl)-5-(pyridin-3-yl)thiophene-2-carboxamide]
Ki [1]: 308 nM | inhibition at 31.6 µM [3]: 45% | Ki [2]: 0.7 nM | Selectivity Ki(hCatS)/Ki(hCatK) [2]: 453

O=C(N[C@H](C(=O)N1C[C@H](Cl)[C@H]2OCC(=O)[C@H]21)C1CCCC1)c1ccc(-c2cncnc2)s1 [Example 3, N—((S)-2-((3aS,6S,6aS)-6-chloro-3-oxotetrahydro-2H-furo[3,2-b]pyrrol-4(5H)-yl)-1-cyclopentyl-2-oxoethyl)-5-(pyrimidin-5-yl)thiophene-2-carboxamide]
Ki [1]: 110 nM | inhibition at 31.6 µM [3]: 73% | Ki [2]: 2.1 nM | Selectivity Ki(hCatS)/Ki(hCatK) [2]: 53

O=C(N[C@H](C(=O)N1C[C@H](Cl)[C@H]2OCC(=O)[C@H]21)C1CCCC1)c1ccc(-c2ccnnc2)s1 [Example 4, N—((S)-2-((3aS,6S,6aS)-6-chloro-3-oxotetrahydro-2H-furo[3,2-b]pyrrol-4(5H)-yl)-1-cyclopentyl-2-oxoethyl)-5-(pyridazin-4-yl)thiophene-2-carboxamide]
Ki [1]: 39.8 nM | inhibition at 31.6 µM [3]: 73% | Ki [2]: 1.8 nM | Selectivity Ki(hCatS)/Ki(hCatK) [2]: 22

O=C(N[C@H](C(=O)N1C[C@H](Cl)[C@H]2OCC(=O)[C@H]21)C1CCCC1)c1ccc(-c2cnccn2)s1 [Example 5, N—((S)-2-((3aS,6S,6aS)-6-chloro-3-oxotetrahydro-2H-furo[3,2-b]pyrrol-4(5H)-yl)-1-cyclopentyl-2-oxoethyl)-5-(pyrazin-2-yl)thiophene-2-carboxamide]
Ki [1]: 355 nM | inhibition at 31.6 µM [3]: 81% | Ki [2]: 2.1 nM | Selectivity Ki(hCatS)/Ki(hCatK) [2]: 169

O=C(N[C@H](C(=O)N1C[C@H](Cl)[C@H]2OCC(=O)[C@H]21)C1CCCC1)c1ccc(-c2cncc(F)c2)s1 [Example 6, N—((S)-2-((3aS,6S,6aS)-6-chloro-3-oxotetrahydro-2H-furo[3,2-b]pyrrol-4(5H)-yl)-1-cyclopentyl-2-oxoethyl)-5-(5-fluoropyridin-3-yl)thiophene-2-carboxamide]
Ki [1]: 174 nM | inhibition at 31.6 µM [3]: 42% | Ki [2]: 3.1 nM | Selectivity Ki(hCatS)/Ki(hCatK) [2]: 55

O=C(N[C@H](C(=O)N1C[C@H](Cl)[C@H]2OCC(=O)[C@H]21)C1CCCC1)c1ncc(-c2cccnn2)s1 [Example 7, N—((S)-2-((3aS,6S,6aS)-6-chloro-3-oxotetrahydro-2H-furo[3,2-b]pyrrol-4(5H)-yl)-1-cyclopentyl-2-oxoethyl)-5-(pyridazin-3-yl)thiazole-2-carboxamide]
Ki [1]: 263 nM | inhibition at 31.6 µM [3]: 62% | Ki [2]: 5.3 nM | Selectivity Ki(hCatS)/Ki(hCatK) [2]: 50

O=C(N[C@H](C(=O)N1C[C@H](Cl)[C@H]2OCC(=O)[C@H]21)C1CCCC1)c1ccc(-c2ccncc2)s1 [Example 8, N—((S)-2-((3aS,6S,6aS)-6-chloro-3-oxotetrahydro-2H-furo[3,2-b]pyrrol-4(5H)-yl)-1-cyclopentyl-2-oxoethyl)-5-(pyridin-4-yl)thiophene-2-carboxamide]
Ki [1]: 160 nM | inhibition at 31.6 µM [3]: 50% | Ki [2]: 0.8 nM | Selectivity Ki(hCatS)/Ki(hCatK) [2]: 210
